Active and inactive are the calls of the source. The calls are words filed in the database; no cut-off is given here.
Tests used:
[1] = Antioxidant activity assessed as AAPH radical scavenging activity preincubated for 15 mins followed by AAPH addition measured every min for 90 mins by ORAC-FL assay relative to trolox; format: functional
Acetylcholinesterase = Acetylcholinesterase (Electrophorus electricus, UniProt O42275); assay: Inhibition of electric eel AChE using acetylthiocholine iodide as substrate incubated for 15 mins by Ellman's method; format: ADME
[2] = Selectivity index, ratio of IC50 for electric eel AChE to IC50 for equine serum BuChE
[3] = target: T1, Amine oxidase [flavin-containing] A (Homo sapiens, UniProt P21397); assay: Inhibition of recombinant human MAO-A expressed in baculovirus infected BTI insect cells at 10 uM incubated for 30 mins using kynuramine as substrate by fluorescence based assay relative to control; conditions: 0.5 h
T1 sequence (P21397 whole entry): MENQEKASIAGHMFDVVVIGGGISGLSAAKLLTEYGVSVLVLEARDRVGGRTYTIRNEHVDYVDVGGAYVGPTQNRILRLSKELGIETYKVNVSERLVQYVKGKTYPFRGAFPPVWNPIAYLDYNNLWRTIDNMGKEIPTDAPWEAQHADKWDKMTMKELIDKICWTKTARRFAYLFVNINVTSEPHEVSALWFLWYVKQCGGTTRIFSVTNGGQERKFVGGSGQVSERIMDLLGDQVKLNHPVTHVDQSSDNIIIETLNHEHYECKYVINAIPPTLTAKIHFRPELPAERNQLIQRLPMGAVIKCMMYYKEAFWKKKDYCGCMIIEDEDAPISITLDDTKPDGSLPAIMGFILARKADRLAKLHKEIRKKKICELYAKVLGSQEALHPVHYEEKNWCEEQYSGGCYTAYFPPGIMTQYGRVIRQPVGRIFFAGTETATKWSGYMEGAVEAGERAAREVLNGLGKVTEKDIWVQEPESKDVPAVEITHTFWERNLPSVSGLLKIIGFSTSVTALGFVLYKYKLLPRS

[4] = Permeability of compound at 100 ug/ml measured after dilution with PBS/EtOH (70:30) at pH 7.4 after 18 hrs by PAMPA-BBB assay
Cholinesterase = Cholinesterase (Equus caballus, UniProt P81908); assay: Inhibition of equine serum BuChE using butyrylthiocholine iodide as substrate incubated for 15 mins by Ellman's method
[5] = target: T2, Amine oxidase [flavin-containing] B (Homo sapiens, UniProt P27338); assay: Inhibition of recombinant human MAO-B expressed in baculovirus infected BTI insect cells using kynuramine as substrate incubated for 30 mins by fluorescence based assay; format: cell-based
T2 sequence (P27338 whole entry): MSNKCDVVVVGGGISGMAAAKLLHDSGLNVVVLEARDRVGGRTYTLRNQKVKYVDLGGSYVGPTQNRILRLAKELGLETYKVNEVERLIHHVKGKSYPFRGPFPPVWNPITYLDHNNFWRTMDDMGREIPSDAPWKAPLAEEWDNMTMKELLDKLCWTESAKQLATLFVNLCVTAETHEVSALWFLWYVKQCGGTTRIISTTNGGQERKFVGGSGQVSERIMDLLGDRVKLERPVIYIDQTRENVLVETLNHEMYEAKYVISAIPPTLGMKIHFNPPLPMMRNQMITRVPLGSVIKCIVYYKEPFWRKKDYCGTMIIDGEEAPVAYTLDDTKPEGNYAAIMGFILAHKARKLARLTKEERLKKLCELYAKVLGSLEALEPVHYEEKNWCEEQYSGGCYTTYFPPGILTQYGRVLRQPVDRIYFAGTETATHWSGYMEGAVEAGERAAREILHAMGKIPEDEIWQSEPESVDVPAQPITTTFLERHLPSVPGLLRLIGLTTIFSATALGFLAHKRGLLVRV

Homo sapiens = species on record: Homo sapiens; assay: Selectivity index, ratio of IC50 for recombinant human MAO-A expressed in baculovirus infected BTI insect cells to IC50 for recombinant human MAO-B expressed in baculovirus infected BTI insect cells
[6] = target: T1, Amine oxidase [flavin-containing] A; assay: Inhibition of recombinant human MAO-A expressed in baculovirus infected BTI insect cells using kynuramine as substrate incubated for 30 mins by fluorescence based assay
[7] = target: Amyloid-beta precursor protein (Homo sapiens) (UniProt P05067); assay: Inhibition of self-induced aggregation of amyloid beta (1 to 42) (unknown origin) at 25 uM incubated for 24 hrs by thioflavin-T fluorescence assay relative to control
[8] = target: Cholinesterase (Equus caballus) (UniProt P81908); assay: Reversible inhibition of equine serum BuChE assessed as enzyme activity at 0.1xIC50 using butyrylthiocholine iodide as substrate measured at 240 mins after dilution by Ellman's method relative to control; set-up: scale not given: the % may be the effect or the level left
[9] = target: Cholinesterase (Equus caballus) (UniProt P81908); assay: Reversible inhibition of equine serum BuChE assessed as enzyme activity at 1xIC50 using butyrylthiocholine iodide as substrate measured after dilution by Ellman's method relative to control; set-up: scale not given: the % may be the effect or the level left
[10] = target: Cholinesterase (Equus caballus) (UniProt P81908); assay: Reversible inhibition of equine serum BuChE assessed as enzyme activity at 0.1xIC50 using butyrylthiocholine iodide as substrate measured after dilution by Ellman's method relative to control; set-up: scale not given: the % may be the effect or the level left
PC-12 [11] = assay: Cytotoxicity against rat PC12 cells assessed as cell viability at 0.1 to 100 uM incubated for 24 hrs by MTT assay; format: cell-based; conditions: pc-12, 24 h
[12] = Inhibition of Cu2+ induced human amyloid beta (1 to 42) aggregation at 25 uM after 24 hrs by thioflavin-T fluorescence assay relative to control
[13] = Metal chelating activity assessed as compound-Cu+ complex formation assessed as effect on maximum absorption shift at 37.5 uM after 30 mins by UV-visible spectrometry method
[14] = Metal chelating activity assessed as compound-Fe3+ complex formation assessed as effect on maximum absorption shift at 37.5 uM after 30 mins by UV-visible spectrometry method
[15] = Metal chelating activity assessed as compound-Fe2+ complex formation assessed as effect on maximum absorption shift at 37.5 uM after 30 mins by UV-visible spectrometry method
Mus musculus [16] = assay: (§1) Antialzheimer activity in po dosed scopolamine-induced memory impairment Kunming mouse model assessed as increase in latency time treated with compound 1 hr before training trial followed by 30 mins later administration with scopolamine and measured 24 hrs after training trial by step-down passive avoidance test; format: functional, organism-based
PC-12 [17] = assay: Neuroprotective activity against H2O2-induced cell death in rat PC12 cells assessed as increase in cell viability preincubated for 24 hrs followed by H2O2 stimulation for 2 hrs followed by replacement of fresh medium and measured after 24 hrs by MTT assay; format: functional, cell-based
[18] = Metal chelating activity assessed as compound-Zn2+ complex formation assessed as effect on maximum absorption shift at 37.5 uM after 30 mins by UV-visible spectrometry method
[19] = Metal chelating activity assessed as compound-Cu2+ complex formation by measuring shift in maximum absorption from 361 nm to 418 nm at 37.5 uM after 30 mins by UV-visible spectrometry method
[20] = Disaggregation of Cu2+ induced preformed fibrils of amyloid beta (1 to 42) (unknown origin) at 25 uM after 24 hrs by transmission electron microscopy relative to control
PC-12 [21] = assay: Neuroprotective activity against H2O2-induced cell death in rat PC12 cells assessed as cell viability at 1 uM preincubated for 24 hrs followed by H2O2 stimulation for 2 hrs followed by replacement of fresh medium and measured after 24 hrs by MTT assay (reference value: 51.3%); format: functional; conditions: read-out: Activity
PC-12 [22] = assay: Neuroprotective activity against H2O2-induced cell death in rat PC12 cells assessed as cell viability at 10 uM preincubated for 24 hrs followed by H2O2 stimulation for 2 hrs followed by replacement of fresh medium and measured after 24 hrs by MTT assay (reference value: 51.3%); format: functional; conditions: read-out: Activity
Mus musculus [23] = assay: as §1, with “in” for “in po dosed”, “as” for “as increase in”, “time at 16.8 mg/kg po” for “time”, “test (reference value: 70.4 secs)” for “test”; format: functional
[24] = Acute toxicity in Kunming mouse assessed as mortality at 250 to 1000 mg/kg, po measured for first 4 hrs through 14 days; format: organism-based; conditions: in vivo
[25] = Acute toxicity in Kunming mouse assessed as abnormal behaviour at 250 to 1000 mg/kg, po measured for first 4 hrs through 14 days; format: organism-based; conditions: in vivo
[26] = Metal chelating activity assessed as compound-Al3+ complex formation by measuring shift in maximum absorption from 361 nm to 426 nm at 37.5 uM after 30 mins by UV-visible spectrometry method

Amyloid-beta precursor protein (Homo sapiens), sequence (P05067 whole entry): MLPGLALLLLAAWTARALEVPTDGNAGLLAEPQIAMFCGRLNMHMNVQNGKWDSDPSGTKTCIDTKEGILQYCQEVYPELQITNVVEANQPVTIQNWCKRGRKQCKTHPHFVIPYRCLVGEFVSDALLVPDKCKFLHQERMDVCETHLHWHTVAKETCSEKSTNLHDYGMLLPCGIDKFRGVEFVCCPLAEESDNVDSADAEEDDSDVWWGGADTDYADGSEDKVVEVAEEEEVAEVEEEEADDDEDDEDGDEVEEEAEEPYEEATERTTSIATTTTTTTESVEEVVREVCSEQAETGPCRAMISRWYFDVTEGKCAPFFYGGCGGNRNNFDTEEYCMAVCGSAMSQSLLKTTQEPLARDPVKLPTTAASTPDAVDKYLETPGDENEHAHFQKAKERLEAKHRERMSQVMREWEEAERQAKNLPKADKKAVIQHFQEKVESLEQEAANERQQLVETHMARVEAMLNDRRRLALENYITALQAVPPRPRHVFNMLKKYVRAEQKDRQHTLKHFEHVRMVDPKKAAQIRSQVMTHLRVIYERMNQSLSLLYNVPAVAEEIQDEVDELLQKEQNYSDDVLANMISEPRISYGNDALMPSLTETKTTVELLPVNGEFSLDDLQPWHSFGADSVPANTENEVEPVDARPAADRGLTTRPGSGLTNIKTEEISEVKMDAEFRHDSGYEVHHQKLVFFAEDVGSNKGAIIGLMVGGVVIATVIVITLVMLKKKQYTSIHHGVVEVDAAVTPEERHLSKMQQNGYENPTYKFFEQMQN
Acetylcholinesterase, sequence (O42275 whole entry): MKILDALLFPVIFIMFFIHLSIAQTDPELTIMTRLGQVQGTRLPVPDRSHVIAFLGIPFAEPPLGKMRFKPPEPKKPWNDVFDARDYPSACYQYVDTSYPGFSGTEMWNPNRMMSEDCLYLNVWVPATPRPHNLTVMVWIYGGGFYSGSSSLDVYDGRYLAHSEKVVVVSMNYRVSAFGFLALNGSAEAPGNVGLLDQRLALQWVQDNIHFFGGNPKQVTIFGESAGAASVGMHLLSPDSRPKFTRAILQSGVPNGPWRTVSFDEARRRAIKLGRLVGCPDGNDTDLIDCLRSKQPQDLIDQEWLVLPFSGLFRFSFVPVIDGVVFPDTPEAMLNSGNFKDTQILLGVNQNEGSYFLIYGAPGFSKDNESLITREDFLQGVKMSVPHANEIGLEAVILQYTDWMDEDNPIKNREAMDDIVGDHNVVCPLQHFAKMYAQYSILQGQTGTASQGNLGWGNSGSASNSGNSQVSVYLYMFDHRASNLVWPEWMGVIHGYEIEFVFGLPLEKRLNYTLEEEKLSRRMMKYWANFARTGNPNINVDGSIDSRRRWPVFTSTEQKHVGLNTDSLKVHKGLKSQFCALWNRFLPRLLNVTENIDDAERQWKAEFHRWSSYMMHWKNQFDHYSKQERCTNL
Cholinesterase, sequence (P81908 whole entry): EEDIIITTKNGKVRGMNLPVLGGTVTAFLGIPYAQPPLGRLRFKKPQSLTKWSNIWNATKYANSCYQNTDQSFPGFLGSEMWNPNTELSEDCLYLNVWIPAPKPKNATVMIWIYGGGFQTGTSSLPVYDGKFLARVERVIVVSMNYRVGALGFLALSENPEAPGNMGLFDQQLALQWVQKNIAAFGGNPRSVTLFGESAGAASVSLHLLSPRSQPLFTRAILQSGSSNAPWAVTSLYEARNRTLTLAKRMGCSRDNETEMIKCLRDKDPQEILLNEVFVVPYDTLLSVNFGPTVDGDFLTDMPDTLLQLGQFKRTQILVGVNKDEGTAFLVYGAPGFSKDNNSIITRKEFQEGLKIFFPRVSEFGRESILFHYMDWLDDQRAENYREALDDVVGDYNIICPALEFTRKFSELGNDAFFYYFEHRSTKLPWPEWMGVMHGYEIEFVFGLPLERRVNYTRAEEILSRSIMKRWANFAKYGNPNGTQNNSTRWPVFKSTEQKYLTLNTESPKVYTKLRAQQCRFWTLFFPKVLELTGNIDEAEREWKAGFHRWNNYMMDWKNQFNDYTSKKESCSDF
Cholinesterase (Equus caballus), sequence (P81908 whole entry): as above

SMILES	Activity [1]	IC50 (Acetylcholinesterase)	Ratio IC50 [2]	inhibition at 10 µM [3]	Papp at 18 h, 100 ug/ml [4]	IC50 (Cholinesterase)	IC50 [5]	Ratio IC50 (Homo sapiens)	IC50 [6]	inhibition [7]	other results
O=C(CCc1cccc(OCCCCN2CCc3ccccc3C2)c1)c1ccccc1O	1.4 µMequiv/µM	23.1 µM	36	< 5%	168 nm/s	0.64 µM	26.7 µM				
O=C(/C=C/c1ccc(F)cc1)c1ccc(OCCCN2CCc3ccccc3C2)cc1O	0.92 µMequiv/µM	22.3 µM	1.7		126 nm/s	13.4 µM	12.6 µM	2.1	26.1 µM	72.4%	
O=C(/C=C/c1cccc(OCCCN2CCc3ccccc3C2)c1)c1ccccc1O	1.1 µMequiv/µM	17.6 µM	1.6		102 nm/s	11.2 µM	10.7 µM	2.8	29.8 µM	65.9%	
O=C(/C=C/c1cccc(OCCCCCCN2CCc3ccccc3C2)c1)c1ccccc1O	1.1 µMequiv/µM	27.1 µM	6.6		118 nm/s	4.1 µM	6.7 µM	4.7	31.5 µM	65.6%	
CN(C)c1ccc(/C=C/C(=O)c2ccc(OCCCCCCN3CCc4ccccc4C3)cc2O)cc1	1.6 µMequiv/µM	6.6 µM	0.6	< 5%	132 nm/s	10.4 µM	7.1 µM			97.5%	
COc1cc2c(cc1OC)C(=O)C(CC1CCN(Cc3ccccc3)CC1)C2 (centres undefined)											Activity [8]: 127%; Activity [9]: 50.9%; Activity [10]: 60.5%
O=C(/C=C/c1cccc(OCCCCN2CCc3ccccc3C2)c1)c1ccccc1O	1.2 µMequiv/µM	16.2 µM	6.2	< 5%	113 nm/s	2.6 µM	5.3 µM			70.2%	Activity [8]: 104%; Activity [9]: 52.6%; Activity (PC-12 [11]): Non-Toxic; inhibition [12]: 80.7%; Activity [13]: inactive; Activity [14]: inactive; Activity [15]: inactive; Activity (Mus musculus [16]): Dose-dependent effect; Activity (PC-12 [17]): Dose-dependent effect; Activity [18]: inactive; Activity [10]: 60.8%; Activity [19]: Active; inhibition [20]: 73.5%; viability at 1 µM (PC-12 [21]): 61.9%; viability at 10 µM (PC-12 [22]): 82.6%; Time (Mus musculus [23]): 126.4 s; Activity [24]: Non-Toxic; Activity [25]: Non-Toxic; Activity [26]: Active
O=C(/C=C/c1cccc(OCCCCCN2CCc3ccccc3C2)c1)c1ccccc1O	1.2 µMequiv/µM	18.6 µM	7.2	< 5%	100 nm/s	3.7 µM	4.8 µM			69.7%	
COc1cc(/C=C/C(=O)CC(=O)/C=C/c2ccc(O)c(OC)c2)ccc1O											inhibition [12]: 76.5%; inhibition [20]: 56.5%
O=C(/C=C/c1cccc(OCCCCN2CCC(Cc3ccccc3)CC2)c1)c1ccccc1O	1.2 µMequiv/µM	15.3 µM	3.1	< 5%	124 nm/s	4.9 µM	6.4 µM			71.4%	
COc1ccccc1/C=C/C(=O)c1ccc(OCCCCN2CCc3ccccc3C2)cc1O	1.5 µMequiv/µM	8.3 µM	1.6		131 nm/s	5.2 µM	9.5 µM	2.4	30.1 µM	83.1%	

From ChEMBL document CHEMBL4364308, “Design, synthesis, in-silico and biological evaluation of novel chalcone derivatives as multi-function agents for the treatment of Alzheimer's disease” (Eur J Med Chem, 2019)
